Data published in PMC12172326 (Journal of Biomedical Science, 2025).
Entries after “also recorded” stand apart in the source; their conditions may differ. Read-outs that look alike come from different tables or passages of the source. Marks after values point to notes of the source that are not given here.

Experiments:
aqueous solubility = type: physicochemical
Protocol: This coarse drug suspension was transferred into Eppendorf microtubes containing approximately 0.4 g of 0.1–0.2 mm yttrium-stabilized zirconia-silica beads (Silibeads® Typ ZY Sigmund Lindner, Germany). The drug was vortexed twice, at 3000 rpm for 45 min, using a beads-milling cell disruptor (Disruptor Genie®, Scientific Industries, USA). The resulting nanosuspension was collected from each microtube and sieved through a 40 µm filter (Cell Strainer, Falcon # 35234) to remove the zirconia-silica beads. […] The stock drug concentration was 10.83 mg/ml (37.4 mM). The drug vehicle was essentially the same ratio of Tween 80 and water, processed in the identical manner as the drug preparation.

[1] = tested on: LPS-induced cytokines (TNF-α, IL-6, IL-1β, KC/GRO, IL-10); assay: systemic LPS challenge in mice, plasma and cerebral cortex cytokines; type: in vivo, mouse
Protocol: 8-week-old male C57/BL6 J mice (25–30 g; n = 28) were randomly assigned to five experimental groups. […] Rolipram, a discontinued PDE4 inhibitor, with known anti-inflammatory activity was used as a positive control. One hour later, animals were administered either LPS (3 mg/kg, serotype 0111:B4, Sigma Aldrich, in normal saline, 0.1 mL/10 g) or an alike volume of saline (without LPS) via the I.P. route. The LPS dose was selected from prior pilot studies to provide a substantial but sub-maximal rise in plasma pro-inflammatory cytokine levels, in line with our prior research. […] Four hours after LPS administration, animals were euthanized, and blood and brain tissue were collected and placed on wet ice. Plasma was quickly separated from blood by centrifugation (10,000g, 5 min, 4 °C), and together with a brain sample (cerebral cortex), were stored at − 80 °C. At a later time, cerebral cortex samples were sonicated in a TRIS-based lysis buffer (Mesoscale Discovery) with 3 × protease/phosphatase inhibitors (Halt™ Protease and Phosphatase Inhibitor Cocktail, Thermo Fisher Scientific, Waltham, MA, USA). Samples were then centrifuged (10,000g, 10 min, 4 °C) and protein concentrations were quantified by bicinchoninic acid assay (BCA, Thermo Fisher Scientific). Mouse plasma and cerebral cortex samples were analyzed by multi-pro-inflammatory cytokine ELISA (V-PLEX Pro-inflammatory Panel 1 Mouse Kit, Mesoscale Discovery) following the manufacturer’s protocol.

[2] = mouse pharmacokinetics, plasma and brain, I.P.; type: in vivo; conditions: for Kp / Cmax / Tmax / AUC(0-inf) / AUC(0-t): male, C57/BL6 J, ip; for Kp: brain/plasma, from AUCinfinity values
Protocol: Mice were euthanized from 30 min to 18 h after dosing. Blood samples were collected into heparinized tubes, centrifuged (10,000g × 2 min at 4 °C), and plasma collected and immediately stored at − 80 °C. The brain was rapidly excised on wet ice; a sample of cerebral hemisphere was then removed and immediately frozen to − 80 °C.

chicken embryos = assay: chicken embryo teratogenicity at E2.5; type: in vivo
Protocol: All studies with chicken embryos were performed in line with UK Home Office regulations and followed guidelines, standards and practices governed by the University of Aberdeen Ethics Committee (Scotland, UK). Fertilized chicken eggs were acquired from Henry Stewart & Co Ltd, Norfolk UK. […] Embryos were incubated at 37 °C to reach E2.5 (early developmental stages). Eggs were then opened and the embryonic membranes protecting the embryos were removed with forceps. Chicken embryos usually lie on one side, so the left side is directly against the yolk and the right side can be observed. […] Consequent to limited drug diffusion when applied to the right side of an embryo, the right side is deemed the ‘treatment’ side and the left (facing internally towards the yolk sac) is considered normal after treatment and thus can act as an internal control.

[3] = LPS-induced inflammation in RAW 264.7 cells (viability, nitrite, TNF-α); type: cell-based, mouse; conditions: mouse, RAW 264.7 cells, RAW 264.7, 0.6 to 60 μM, LPS 20 ng/mL, MTS, read-out: cellular viability
Protocol: (§1) RAW 264.7 cell culture: RAW 264.7 cells were obtained from ATCC (Manassas, VA, USA) and grown in Dulbecco’s modified Eagle’s (DMEM), high glucose, GlutaMAX™ media supplemented with 10% FBS (ThermoFisher Scientific, Asheville, NC, USA). Cells were maintained at 37 °C and 5% CO2, were propagated as described by ATCC guidelines, and were cultured as previously communicated. […] One hour later, cells were challenged with lipopolysaccharide (LPS) (20 ng/ml, E. Coli O55:B5, Sigma, St Louis, MO, USA; Cat # L4005). This LPS concentration was selected from pilot studies to provide a submaximal inflammatory insult. Twenty-four hours later, culture media was collected to quantify cell viability (CellTiter 96® Aqueous One Solution Cell Proliferation Assay kit (MTS); Promega, Madison, WI, USA, Cat # G3580), secreted TNF-α protein (ELISA MAX™ Deluxe Set Mouse TNF-α, BioLegend, CA, USA; Cat # 430915) and nitrite (Griess Reagent System, Promega, Madison, WI, USA; Cat # G2930).

RAW 264.7 cells = assay: as above; type: cell-based, mouse; conditions: RAW 264.7, LPS 20 ng/mL, 24 h, p < 0.05
Protocol: as §1

human cereblon = molecular target: T1, human cereblon (Homo sapiens, UniProt Q96SW2); assay: cereblon/BRD3 binding assay (AlphaScreen in methods, FRET assay in results); conditions: dBET1-Cereblon-BRD3 interaction
T1 construct: purchased BPS Bioscience 79770
Protocol: Following 30 min incubation with shaking at room temperature, AlphaLISA anti-FLAG Acceptor and Alpha Glutathione Donor beads (PerkinElmer) were sequentially added and then incubated for a further 1 h at room temperature for each of the added chemicals. Alpha counts were, thereafter, recorded on a Synergy Neo2 (BioTek, Agilent, Santa Clara, CA). The relative activity of the alpha signal was calculated after subtraction of the “blank value” from all readings, and the value of vehicle group was then set as 100%.

[4] = 26.5 and 53 mg/kg I.P. 1 h before LPS 3 mg/kg, 4 h, p < 0.05 to < 0.0001
[5] = cerebral cortex, 26.5 and 53 mg/kg I.P., LPS 3 mg/kg, 4 h

T1 sequence (Q96SW2 whole entry): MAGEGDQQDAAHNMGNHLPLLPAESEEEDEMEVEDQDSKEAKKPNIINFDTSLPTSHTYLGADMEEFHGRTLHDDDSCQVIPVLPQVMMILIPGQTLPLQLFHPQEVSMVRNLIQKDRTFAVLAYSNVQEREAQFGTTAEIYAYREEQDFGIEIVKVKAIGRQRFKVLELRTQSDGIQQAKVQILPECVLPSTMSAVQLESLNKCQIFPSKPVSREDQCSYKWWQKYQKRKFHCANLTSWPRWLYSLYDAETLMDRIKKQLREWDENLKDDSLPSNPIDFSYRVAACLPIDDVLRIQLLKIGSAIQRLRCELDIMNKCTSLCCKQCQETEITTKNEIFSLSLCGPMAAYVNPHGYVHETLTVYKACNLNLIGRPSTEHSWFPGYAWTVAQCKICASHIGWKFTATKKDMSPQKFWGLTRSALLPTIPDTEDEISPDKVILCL
T1 sequence (Q16531 whole entry partner): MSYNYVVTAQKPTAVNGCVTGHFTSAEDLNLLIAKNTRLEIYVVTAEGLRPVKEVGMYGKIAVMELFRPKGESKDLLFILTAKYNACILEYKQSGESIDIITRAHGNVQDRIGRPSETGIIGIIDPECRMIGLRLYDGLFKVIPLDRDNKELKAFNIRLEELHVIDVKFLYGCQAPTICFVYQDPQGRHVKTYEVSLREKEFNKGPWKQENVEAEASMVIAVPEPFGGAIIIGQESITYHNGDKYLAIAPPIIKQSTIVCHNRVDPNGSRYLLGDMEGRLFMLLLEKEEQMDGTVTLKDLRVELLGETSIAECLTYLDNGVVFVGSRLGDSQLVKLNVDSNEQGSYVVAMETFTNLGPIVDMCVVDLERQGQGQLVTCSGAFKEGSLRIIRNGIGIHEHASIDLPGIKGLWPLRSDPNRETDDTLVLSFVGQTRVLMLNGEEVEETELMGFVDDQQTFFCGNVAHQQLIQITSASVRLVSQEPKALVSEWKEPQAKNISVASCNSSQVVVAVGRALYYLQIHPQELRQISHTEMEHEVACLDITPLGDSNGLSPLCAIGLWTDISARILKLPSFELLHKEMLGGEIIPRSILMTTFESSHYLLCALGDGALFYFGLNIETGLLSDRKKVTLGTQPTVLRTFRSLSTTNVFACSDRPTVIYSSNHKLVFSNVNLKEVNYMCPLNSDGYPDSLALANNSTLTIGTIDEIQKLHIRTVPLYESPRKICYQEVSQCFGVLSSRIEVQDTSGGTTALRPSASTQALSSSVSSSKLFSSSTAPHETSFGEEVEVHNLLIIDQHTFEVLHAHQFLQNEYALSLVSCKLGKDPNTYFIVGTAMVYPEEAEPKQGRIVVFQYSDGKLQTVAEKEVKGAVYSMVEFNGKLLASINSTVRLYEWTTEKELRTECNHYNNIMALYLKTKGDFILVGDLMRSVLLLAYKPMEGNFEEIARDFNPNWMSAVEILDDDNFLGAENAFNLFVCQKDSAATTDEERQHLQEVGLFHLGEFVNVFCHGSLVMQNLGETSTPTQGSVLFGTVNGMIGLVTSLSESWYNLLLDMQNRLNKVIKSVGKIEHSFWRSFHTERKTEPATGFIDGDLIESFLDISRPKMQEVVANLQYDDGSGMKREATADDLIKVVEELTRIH
T1 sequence (Q13619 whole entry partner): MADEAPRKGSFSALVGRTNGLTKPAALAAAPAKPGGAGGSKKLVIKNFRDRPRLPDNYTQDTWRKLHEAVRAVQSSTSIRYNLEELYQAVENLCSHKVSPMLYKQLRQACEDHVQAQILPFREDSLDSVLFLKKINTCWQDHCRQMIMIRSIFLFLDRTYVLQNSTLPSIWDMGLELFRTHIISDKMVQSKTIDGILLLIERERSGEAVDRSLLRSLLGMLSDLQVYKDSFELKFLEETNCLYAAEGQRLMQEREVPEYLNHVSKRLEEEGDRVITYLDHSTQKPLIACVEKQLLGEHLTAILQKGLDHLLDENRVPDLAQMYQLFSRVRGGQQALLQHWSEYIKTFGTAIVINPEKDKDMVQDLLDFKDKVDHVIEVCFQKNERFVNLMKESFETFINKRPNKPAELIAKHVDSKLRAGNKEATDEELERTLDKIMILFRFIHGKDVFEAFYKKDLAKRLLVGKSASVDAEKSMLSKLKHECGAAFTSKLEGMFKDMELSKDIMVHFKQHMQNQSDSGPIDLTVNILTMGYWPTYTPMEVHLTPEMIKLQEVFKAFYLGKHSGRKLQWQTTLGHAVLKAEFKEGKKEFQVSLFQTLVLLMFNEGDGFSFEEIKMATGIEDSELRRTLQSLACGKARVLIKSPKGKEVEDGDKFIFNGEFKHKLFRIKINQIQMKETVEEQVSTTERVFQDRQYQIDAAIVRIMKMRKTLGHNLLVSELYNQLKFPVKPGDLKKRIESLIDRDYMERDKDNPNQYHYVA
T1 sequence (P62877 whole entry partner): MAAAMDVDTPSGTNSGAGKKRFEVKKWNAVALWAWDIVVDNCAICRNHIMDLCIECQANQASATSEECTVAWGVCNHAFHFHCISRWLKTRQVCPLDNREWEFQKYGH

For `Nc1cccc2c1C(=S)N(C1CCC(=O)NC1=O)C2=O` (centres unmarked) [3-MP, 3-monothiopomalidomide], the aqueous solubility (aqueous solubility) was “poorly aqueous soluble”, the “LPS-mediated elevation in plasma IL-6” value [1, 4] was “lowered” and the “LPS-mediated elevation in plasma TNF-α” value [1, 4] was “lowered”. For the same molecule, the “LPS-induced brain IL-1β” value [1, 5] was “dose-dependent reduction”, the “LPS-induced brain IL-6” value [1, 5] was “dose-dependent reduction” and the “LPS-induced brain KC/GRO” value [1, 5] was “dose-dependent reduction”. For the same molecule, the “LPS-induced brain TNF-α” value [1, 5] was “dose-dependent reduction”, the “levels of the anti-inflammatory cytokine IL-10” value ([1]; plasma and brain, 26.5 and 53 mg/kg I.P., compared to LPS treatment) was “unaffected” and the AUCInf ([2]; brain, 2.65 mg/kg I.P.) was 676.54 ng·h/g. The AUCLast ([2]; brain, 2.65 mg/kg I.P.) was 550.20 ng·h/g, the AUCInf ([2]; brain, 26.5 mg/kg I.P.) was 9052.48 ng·h/g and the AUCLast ([2]; brain, 26.5 mg/kg I.P.) was 8968.50 ng·h/g. The Kp ([2]; 2.65 mg/kg, 2.65 mg/kg I.P., read-out: Brain/plasma ratio) was 0.47, the Kp ([2]; 2.65 mg/kg, across the two doses 26.47 and 2.65 mg/kg I.P., read-out: brain/plasma drug concentration ratio) was 0.44 to 0.47 and the Kp ([2]; 26.5 mg/kg, 26.5 mg/kg I.P., read-out: Brain/plasma ratio) was 0.44. It also gave a Cmax ([2]; brain, 2.65 mg/kg I.P.) of 454 ng/g, a Tmax ([2]; brain, 2.65 mg/kg I.P.) of 30 min and a Cmax ([2]; brain, 26.5 mg/kg I.P.) of 4230 ng/g. The Tmax ([2]; brain, 26.5 mg/kg I.P.) was 60 min, the AUC(0-inf) ([2]; plasma, 2.65 mg/kg I.P.) was 1440 ng·h/mL and the AUC(0-t) ([2]; plasma, 2.65 mg/kg I.P.) was 1410 ng·h/mL. The Cmax ([2]; plasma, 2.65 mg/kg I.P.) was 978 ng/mL, the Tmax ([2]; plasma, 2.65 mg/kg I.P.) was 30 min and the AUC(0-inf) ([2]; plasma, 26.5 mg/kg I.P.) was 20800 ng·h/mL. The AUC(0-t) ([2]; plasma, 26.5 mg/kg I.P.) was 20700 ng·h/mL, the Cmax ([2]; plasma, 26.5 mg/kg I.P.) was 9580 ng/mL and the Tmax ([2]; plasma, 26.5 mg/kg I.P.) was 60 min. For the same molecule, the “developmental effect on chicken embryos” value (chicken embryos; E2.5, 2.65 to 132 ug, 24 h exposure, vs DMSO controls) was “not teratogenic; also recorded: no adverse developmental differences or damage”, the Normal embryos (chicken embryos; E2.5, dose 2.65 ug, N 2, 24 h) was 2 and the Normal embryos (chicken embryos; E2.5, dose 5.3 ug, N 3, 24 h) was 3. The Normal embryos (chicken embryos; E2.5, dose 20 ug, N 5, 24 h) was 5, the “Not counted embryos (died soon after application, methodology-related)” value (chicken embryos; E2.5, dose 26.4 ug, N 7) was 2^a and the Normal embryos (chicken embryos; E2.5, dose 26.4 ug, N 7, 24 h) was 5. The “Not counted embryos (died soon after application, methodology-related)” value (chicken embryos; E2.5, dose 52.8 ug, N 5) was 2^a, the Normal embryos (chicken embryos; E2.5, dose 52.8 ug, N 5, 24 h) was 3 and the Normal embryos (chicken embryos; E2.5, dose 66 ug, N 3, 24 h) was 3. For the same molecule, the Normal embryos (chicken embryos; E2.5, dose 132 ug, N 3, 24 h) was 3, the viability at 24 h [3] was > 90% and the “concentration significantly reducing LPS-induced TNF-α” value (RAW 264.7 cells) was ≥ 30 µM. For the same molecule, the “concentration significantly reducing LPS-induced nitrite” value (RAW 264.7 cells) was ≥ 10 µM and the IC50 (human cereblon) was 210 nM.
